Data set [1] deals with Mushroom Tyrosinase. Kind of data set: Inhibition of Tyrosine-Tyrosinase reaction, absorbance at 477 nm (assay e). The format is biochemical. Conditions: test compound n = 5·10^−5 mol; Solution A 1 mL, Solution B 0.5 mL, buffer 0.5 mL; witness solution 0.4354. On the procedure: Inhibition of tyrosinase, i.e. inhibition of the hydroxylation of Tyrosine into DOPA, was measured by visible spectrophotometry, and more specifically by measuring the absorbance at 477 nm, indicative of the amount of melanine produced in vitro from the Tyrosine substrate by Tyrosinase. In order to make sure that the measured absorbance is proportional to the enzymatic activity in the range of studied concentrations, five standard solutions were prepared as follows. Absorbance has been measured on a Perkin Elmer UV/Vis Spectrometer Lambda 12. Solution A (1,000 U/mL mother solution of Tyrosinase) was prepared by dissolving 40 mg of 1,250 U/mg Mushroom Tyrosinase in 1 mL 100 mM pH6.5 bis Tris buffer and QS to 50 mL with milliQ water. Bis Tris buffer (100 mM pH6.5 bis Tris buffer) was prepared by dissolving 2.09 g of Bis Tris in milliQ water and QS to 100 mL. Solution B (mother solution of Tyrosine) was prepared by dissolving 100 mg of Tyrosine in milliQ water and QS to 100 mL. The standard solutions were incubated for 2 h at 37° C., then quickly cooled to 4° C. […] The following test solutions were prepared and their absorbance was measured at 477 nm: […]

For data set [2], the target named is Mushroom Tyrosinase. Kind of data set: Tyrosinase inhibition, concentration series and IC50 (assay f). It is filed as biochemical. The settings on record: for IC50: Concentration Tyrosinase 100 U/mL, from linear regression of % activity versus concentration; for Absorbance (477 nm): 1 h 30 at 37° C.; for % activity: witness solution = 100%. As for the experimental part:
The protocol performed is the same as in assay e. Solution A (1,000 U/mL mother solution of Tyrosinase) was prepared by dissolving all of 50 kU Mushroom Tyrosinase in 1 mL 100 mM pH6.5 bis Tris buffer and QS to 50 mL with milliQ water. Bis Tris buffer (100 mM pH6.5 bis Tris buffer) was prepared by dissolving 2.09 g of Bis Tris in milliQ water and QS to 100 mL. pH was adjusted at 6.5 using hydrochloric acid. Solution B (mother solution of Tyrosine) was prepared by dissolving 20 mg of Tyrosine in milliQ water and QS to 20 mL. Stock solution of compound 31 was prepared as follow: 10 mg of compound 31 was dissolved in Bis Tris buffer up to 1 ml. Stock solution of β-arbutin was prepared as follow: 20 mg of compound β-arbutin was dissolved in Bis Tris buffer up to 1 ml. The solutions were incubated for 1 h 30 at 37° C., then quickly cooled to 4° C. 100 μL of each solution were deposited on 96-well plate. The absorbance of the different solutions were measured at 477 nm (Molecular Devices: Spectra Max 340PC). The different solutions were prepared as described in the different tables below and their absorbances were reported. The absorbance of witness solution (without inhibitor) was set at 100% of enzymatic activity, allowing us to determine the percentage of enzymatic activity of the different solutions. Data have been plotted (% of activity versus concentration of inhibitors) and the linear regression of the curve was used to calculate the […] of both compounds.

The next data set deals with female CD1 mice. Kind of data set: Facilitatory effect on urinary glucose excretion after oral administration. It is filed as in vivo. The settings on record: 3 mg/kg po. As for the experimental part:
As experimental animal, female CD1 mice (CDM or Charles River) were used. A test compound was dissolved in the vehicle (5% N-methyl pyrrolidone, 20% PEG 400, 75% 20 mM Na4P2O7 buffer, v/v/v) at the concentration of 1 mg/mL After the body weights of the mice were measured and the mice randomized, the test article was orally administered at the dose of 1 mg/kg, 3 mg/kg and 10 mg/kg. For control, just the vehicle (5% N-methyl pyrrolidone, 20% PEG 400, 75% 20 mM Na4P2O7 buffer, v/v/v) was orally administered. The oral administration was performed with gastric tube for mice and a 1 mL syringe. The minimum count in one group was 3 but could reach 12 for some groups. Collection of the urine was performed manually by gentling massaging the abdomen in order to collect urine (3 μL) via a calibrated pipette. Urine was collected at 1, 2, 4, 6, 8 and then 16, 18, 20, 22, 24, 26 and 28 hrs. The urine glucose concentration was measured using a WAKO glucose kit as follows: 3 μL of urine was deposited into a 96-well micro plate for spectrometric readout. The urine aliquot was diluted with 350 μL of the WAKO working solution. […] The absorbance of the 96-well plates were then read at 505 nm using a BioTek SynergyMX plate fluorometer/absorbance photometer and the glucose concentration was calculated. […]

Data set [3] concerns β-glucosidase from Almonds. The data set can be described thus: Enzymatic stability against glycosidase, HPLC analysis after incubation with β-glucosidase. It is filed as in vitro ADME. The settings on record: 4 h at 37° C., phosphate buffer pH 7, 10 U β-glucosidase. The source says:
The enzymatic stability assay has been performed with compound 26 according to the invention and compound A used as a reference compound to control the efficacy of the β-glucosidase. The sergliflozin-A stability has also been evaluated in order to compare the improvement of metabolic stability obtained through the replacement of the intracyclic oxygen atom of the glucose moiety by a CF2 moiety.
All the compounds have been treated with β-glucosidase. The stability of compound 26 and Sergliflozin-A has been assessed by HPLC analysis after incubation with β-glucosidase.
A Gilson HPLC system was used, equipped with a manual injection system (V=20 μL), a Diode Array Detector (DAD172) set at a wavelength of 230 nm and a 150 mm×4.6 mm, 5 μm HICHROM Kromasil 100-5C18 reverse phase column. A linear HPLC binary gradient was used as follows: solvent A was water and solvent B was acetonitrile. Following the injection of 20 μL of a sample, solvent B was held at 20% for 3 min, increased from 20% to 90% in 17 min, held at 90% for 4 min; finally, solvent B was decreased back to 20% over 5.5 min and was held at 20% for 3.5 min.
The procedure has been adapted from J. Agric. Food Chem. 2005, 53, 4918-4924.
100 μL of a solution of compound 26 at 4.5·10^−4 mol·L^−1 in acetonitrile was added to a solution containing 800 μL of phosphate buffer (73173 Fluka, pH 7) in the presence of β-glucosidase from Almonds (10 U, 100 μL of a 5.6 mg·mL^−1 solution in phosphate buffer, (G4511sigma 18.7 U per mg)) and was kept 4 h at 37° C.
100 μL of a solution of sergliflozin-A at 4.5·10^−4 moL·L^−1 in acetonitrile has been treated in the presence of β-glucosidase following the same process.
In parallel, 100 μL of a solution of p-nitrophenyl-β-glucoside (compound A) at 4.5·10^−4 mol·L^−1 in phosphate buffer (73173 Fluka, pH 7) was added to a solution containing 700 μL of phosphate buffer and 100 μL of acetonitrile, with the presence of β-glucosidase from Almonds (10 U, 100 μL of a 5.6 mg·mL^−1 solution in phosphate buffer, (G4511 sigma 18.7 U per mg)) and was kept 4 h at 37° C. During the process in the presence of β-glucosidase, a yellow coloration was observed that underlines the decomposition of compound. A.
HPLC of compound 21 (FIG. 7), compound 26 (FIG. 8) and Sergliflozin-A (FIG. 10) have been performed to follow up in the experiments the formation of compound 21 (the aglycone part) implying a degradation of the starting material.
In order to evaluate the percentage of degradation, a calibration has been done on compound 21 giving the following results:
Data have been plotted (Area % versus concentration) and the linear regression obtained was characterized by the equation y=53629x and a R^2=0.994. […]

Data set [4] has as its system 18 hrs fasted female CD1 mice. The data set can be described thus: Decrease of blood glucose excursions following oral glucose challenge (oral glucose tolerance test). It is filed as in vivo. As for the experimental part: As experimental animal, 18 hrs fasted female CD1 mice (CDM or Charles River) were used. A test compound was dissolved in the vehicle (5% N-methyl pyrrolidone, 20% PEG 400, 75% 20 mM Na4P2O7 buffer, v/v/v) at the concentration of 1 mg/mL. After the body weights of the mice were measured and the mice randomized, the test article was orally administered at the dose of 1 mg/kg, 3 mg/kg and 10 mg/kg. For control, just the vehicle (5% N-methyl pyrrolidone, 20% PEG 400, 75% 20 mM Na4P2O7 buffer, v/v/v) was orally administered. 15 min after this oral administration, a 20% glucose solution in deionised water was orally administered to all mice. The oral administration was performed with gastric tube for mice and a 1 mL syringe. The minimum count in one group was 3 but could reach 5 for some groups. Collection of the blood was performed via the saphenous vein. Blood was collected at 5, 10, 30, 45, 60 and 120 min post glucose challenge. One experiment consisted in administrating the test article 18 hrs prior to a glucose challenge i.e. 18 hrs post po of test article. The blood glucose concentration was measured using Johnson and Johnson's OneTouch® Ultra Blood Glucose Monitoring System. The glucose concentrations for controls and test articles at the different time points were averaged using Excel 2007 and plotted using GraphPad Prism 5.

The mark [5] stands for this setting: Inhibitor Concentration 0.17 mg/mL.
Where [6] appears, read: Inhibitor Concentration 0.33 mg/mL.
Where [7] appears, read: Inhibitor Concentration 0.50 mg/mL.
Setting [8] is: Inhibitor Concentration 0.67 mg/mL.
Setting [9] is: Inhibitor Concentration 0.83 mg/mL.
The mark [10] stands for this setting: Inhibitor Concentration 1.33 mg/mL.
Where [11] appears, read: Inhibitor Concentration 2.00 mg/mL.
Setting [12] is: Inhibitor Concentration 2.67 mg/mL.
[13] abbreviates: Inhibitor Concentration 3.33 mg/mL.

≈ marks a conversion by molar mass, not a printed value.

As a reminder, the IC50 is the midpoint of a concentration-inhibition curve. High values mean lower potency, low ones higher potency.

Take `OC[C@@H]1[C@@H](O)[C@H](O)[C@@H](O)[C@H](Oc2ccc(O)cc2)C1(F)F` [Compound 31]: the “Absorbance (477 nm)” value in the data set on Mushroom Tyrosinase [1] stood at 0.1292; with Mushroom Tyrosinase [2] (setting [5]) it was 0.5855; in the data set on Mushroom Tyrosinase [2] (setting [6]) it was 0.3535; in the data set on Mushroom Tyrosinase [2] (setting [7]), 0.255; in the data set with Mushroom Tyrosinase [2] (setting [8]) it was 0.220; in the data set on Mushroom Tyrosinase [2] (setting [9]), 0.200. Also, the IC50 against Mushroom Tyrosinase [2] came to 328 µg/mL (≈ 1070 µM). Besides, the “% activity” value in the data set with Mushroom Tyrosinase [2] (setting [5]) is recorded as 81.55%; with Mushroom Tyrosinase [2] (setting [6]) it was 49.23%; in the data set on Mushroom Tyrosinase [2] (setting [7]), 35.52%; in the data set with Mushroom Tyrosinase [2] (setting [8]), 30.57%; in the data set on Mushroom Tyrosinase [2] (setting [9]), 27.86%.
For `CCOc1ccc(Cc2cc([C@H]3[C@H](O)[C@@H](O)[C@H](O)[C@@H](CO)[C@@H]3O)ccc2Cl)cc1` [compound 9 of WO 2009/1076550], the “glucosuria detected in the same time period (up to 24 hrs)” value with female CD1 mice (16 to 28 hours after administration (FIG. 6)) was “none could be detected”.
Turning to `COc1ccc(Cc2ccccc2O[C@H]2[C@H](O)[C@@H](O)[C@H](O)[C@@H](CO)C2(F)F)cc1` [Compound 26], the “degradation in the presence of β-glucosidase (in words)” value in data set [3] is given as “no degradation occurs”.
As to `OC[C@H]1O[C@@H](Oc2ccc(O)cc2)[C@H](O)[C@@H](O)[C@@H]1O` [β-Arbutin], the half-inhibitory concentration (IC50) against Mushroom Tyrosinase [2] is 1100 µg/mL (≈ 4040 µM). Further, the “Absorbance (477 nm)” value with Mushroom Tyrosinase [2] (setting [8]) came out at 0.5010; in the data set on Mushroom Tyrosinase [2] (setting [10]) it was 0.3040; with Mushroom Tyrosinase [2] (setting [11]) it was 0.2380; in the data set with Mushroom Tyrosinase [2] (setting [12]), 0.2035; in the data set with Mushroom Tyrosinase [2] (setting [13]) it was 0.1970. Further, the “% activity” value with Mushroom Tyrosinase [2] (setting [8]) is given as 66.62%; in the data set on Mushroom Tyrosinase [2] (setting [10]), 40.43%; in the data set on Mushroom Tyrosinase [2] (setting [11]), 31.65%; in the data set on Mushroom Tyrosinase [2] (setting [12]), 27.06%; in the data set with Mushroom Tyrosinase [2] (setting [13]), 26.20%.
For the molecule `Oc1ccc(O)cc1` [Hydroquinone], the “Absorbance (477 nm)” value with Mushroom Tyrosinase [1] is 0.1528.
For the molecule `O=[N+]([O-])c1ccc(O[C@@H]2O[C@H](CO)[C@@H](O)[C@H](O)[C@H]2O)cc1` [compound A, p-nitrophenyl-β-glucoside], the “degradation in the presence of β-glucosidase (in words)” value in data set [3] is “decomposition”.
Regarding `CCOc1ccc(Cc2cc([C@H]3[C@H](O)[C@@H](O)[C@H](O)[C@@H](CO)C3(F)F)ccc2Cl)cc1` [Compound 16], the “blood glucose excursions following glucose challenge” value in data set [4] (3 mg/kg po administered 18 hrs prior to glucose challenge (FIG. 4)) was “still reduced blood glucose excursions”. Also, in data set [4] (1, 3 and 10 mg/kg po, normal mice, glucose 15 min after dosing (FIG. 3)), the “blood glucose levels following glucose challenge” value was “reduced blood glucose levels in a dose-dependent manner”. The duration of glucosuria with female CD1 mice (compared to Dapagliflozin (FIG. 5)) is above 24 h.

The values above are taken from patent publication US9434670B2, “Family of aryl, heteroaryl, O-aryl and O-heteroaryl carbasugars” (TFCHEM, priority 2011, dated 2016).
